From patent publication US9968582B2, “Use of a benzoate containing composition in urea cycle disorders and neurodegenerative disorders” (Rush University Medical Center, priority 2014, dated 2018)

Assays:
DJ-1 [1] = assay: MPTP mouse model of PD, Western blot of DJ-1 in the nigra; format: in vivo, mice; details: MPTP intoxication; FIG. 9A-B
Procedure: (§1) Six- to eight-week old C57BL/6 mice were purchased from Harlan (Indianapolis, Ind.). For acute MPTP intoxication, mice received four intraperitoneal (i.p.) injections of MPTP-HCl (18 mg/kg of free base; Sigma Chemical Co., St. Louis, Mo.) in saline at 2-h intervals. Control animals received only saline.
(§2) GTB was mixed in 0.5% methylcellulose (MC) and from 3 h after the last injection of MPTP, mice were gavaged 100 μL GTB-mixed MC once daily using gavage needle. Therefore, control MPTP mice received only MC as vehicle.
(§3) Immunoblot analysis for DJ-1 and TH was carried out. Briefly, cell homogenates were electrophoresed, proteins were transferred onto a nitrocellulose membrane, and bands were visualized with an Odyssey infrared scanner after immunolabeling with respective primary antibodies followed by infra-red fluorophore-tagged secondary antibody (Invitrogen).
Upregulation and/or maintenance of PD-related beneficial protein such as DJ-1 in the nigra during neurodegenerative insults may have therapeutic efficacy in PD.

[2] = tested on: Tyrosine hydroxylase (TH); assay: MPTP mouse model of PD, Western blot of nigral TH; format: in vivo, mice; details: MPTP intoxication compared with saline-injected controls; FIG. 9A-B
Procedure: as §1, §2, §3
Tyrosine hydroxylase (TH), the key enzyme responsible for the production of dopamine, is present in dopaminergic neurons. MPTP-intoxication led to approximately 60% loss of nigral TH (FIG. 9A-B) compared with saline-injected controls.

[3] = tested on: dopamine (DA) in the striata; assay: MPTP mouse model of PD, HPLC of striatal dopamine; format: in vivo, mice; details: MPTP intoxication compared to saline-injected control mice, 7 days; FIG. 10
Procedure: as §1, §2
Striatal level of dopamine was quantified in Complete Stand-Alone HPLC-ECD System EiCOMHTEC-500 (JM Science Inc., Grand Island, N.Y.). Briefly, mice were sacrificed by cervical dislocation after 7 days of MPTP intoxication and their striata were collected and immediately frozen in dry ice and stored at −80° C. until analysis. On the day of the analysis, tissues were sonicated in 0.2M perchloric acid containing isoproterenol and resulting homogenates were centrifuged at 20,000×g for 15 min at 4 C. After pH adjustment and filtration, 10 μl of supernatant was injected onto an Eicompak SC-3ODS column (Complete Stand-Alone HPLC-ECD System EiCOMHTEC-500 from JM Science Inc., Grand Island, N.Y.) and analyzed following the manufacturer's protocol.
Next, to determine whether GTB protects against biochemical deficits caused by MPTP, the inventor quantified levels of dopamine (DA) in the striata 7 days after the MPTP treatment. As evident from FIG. 10, MPTP intoxication led to about 75% decrease in striatal DA compared to striata of saline-injected control mice.

[4] = tested on: disease process of multiple sclerosis (MS) in mice; details: cited from earlier work
DJ-1 [5] = details: astrocytes and neurons (cited title); cited from earlier work
BDNF = details: brain cells; cited from earlier work
NT-3 = details: brain cells; cited from earlier work
[6] = in vivo; cited from earlier work

Structure (SMILES)	level of DJ-1 in the nigra (DJ-1 [1])	loss of nigral TH [2]	decrease in striatal DA [3]	disease process of multiple sclerosis (MS) [4]	DJ-1 protein (DJ-1 [5])	production of BDNF (BDNF)	production of NT-3 (NT-3)	metabolism and excretion [6]
CN1CC=C(c2ccccc2)CC1 [MPTP, reference compound]	decreased the level of DJ-1	approximately 60%	about 75%	–	–	–	–	–
O=C([O-])c1ccccc1.[Na+] [sodium benzoate]	–	–	–	suppresses the disease process	up-regulates	increases the production	increases the production	quickly metabolized and excreted from the body
